Experimental data: the supplement of paper PMC10307832

Tests used:
Experiment in all cases: relative viability (nuclei count vs DMSO), 5 days (fraction); higher = more cells survive
Irinotecan = compound: CCc1c2c(nc3ccc(OC(=O)N4CCC(N5CCCCC5)CC4)cc13)-c1cc3c(c(=O)n1C2)COC(=O)[C@]3(O)CC [Irinotecan]
Procedure, shortened: (§1)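 For viability, nuclei in each treated well were divided by nuclei in vehicle wells and the median across plates was taken. Lung cancer cell lines in 1536-well plates were pinned with five library-drug doses (not always all listed) spaced by √10, cultured 5 days without medium change, and imaged at 4× after Hoechst staining, with plates passing only at control CV below 25% and at least one doubling.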

RU-SKI 43 = compound: CC[C@@H](C)CNCC(=O)N1CCC2=C([C@@H]1COC3=CC=CC(=C3)C)C=CS2 [RU-SKI 43]
Procedure, shortened: as §1

MK-8033 = compound: Cn1cc(-c2cnc3ccc4ccc(CS(=O)(=O)NCc5ccccn5)cc4c(=O)c3c2)cn1 [MK-8033]
Procedure, shortened: as §1

RU-SKI 43 + Foretinib = compound: CC[C@@H](C)CNCC(=O)N1CCC2=C([C@@H]1COC3=CC=CC(=C3)C)C=CS2 [RU-SKI 43] + COc1cc2c(Oc3ccc(NC(=O)C4(C(=O)Nc5ccc(F)cc5)CC4)cc3F)ccnc2cc1OCCCN1CCOCC1 [Foretinib] (partner 0.25 µM)
Procedure, shortened: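 Cells from lung cancer lines were seeded into 1536-well plates and, one day later, dosed by pin tool. Treatments were either a single drug or a fixed dose of an anchor drug with five library-drug doses (not always all listed) in √10 steps. After 5 days, nuclei were stained in a one-step fixation (final 0.05% Triton X-100, 1% formaldehyde, 1 ug/ml Hoechst) and counted on 4× images, and relative viability is the treated-to-vehicle nuclei ratio, as the median of duplicate plates.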

| Cell Line | relative viability (Irinotecan; 0.6325 µM) | relative viability (Irinotecan; 2 µM) | relative viability (Irinotecan; 6.325 µM) | relative viability (Irinotecan; 20 µM) | relative viability (RU-SKI 43; 0.1 µM) | relative viability (RU-SKI 43; 0.3162 µM) | relative viability (RU-SKI 43; 1 µM) | relative viability (RU-SKI 43; 3.162 µM) | relative viability (RU-SKI 43; 10 µM) | relative viability (MK-8033; 0.02 µM) | relative viability (MK-8033; 0.06325 µM) | relative viability (MK-8033; 0.2 µM) | relative viability (MK-8033; 0.6325 µM) | relative viability (MK-8033; 2 µM) | relative viability (RU-SKI 43 + Foretinib; first compound 0.1 µM) | relative viability (RU-SKI 43 + Foretinib; first compound 0.3162 µM) | relative viability (RU-SKI 43 + Foretinib; first compound 1 µM) | relative viability (RU-SKI 43 + Foretinib; first compound 3.162 µM) | relative viability (RU-SKI 43 + Foretinib; first compound 10 µM) |
| --- | --- | --- | --- | --- | --- | --- | --- | --- | --- | --- | --- | --- | --- | --- | --- | --- | --- | --- | --- |
| NCI-H1623 | 0.866 | 0.703 | 0.275 | 0.297 | 1.02 | 0.958 | 1.03 | 1.06 | 0.883 | 0.87 | 0.96 | 0.839 | 0.992 | 1.02 | 0.802 | 0.871 | 0.922 | 0.826 | 0.711 |
| NCI-H1651 | 0.676 | 0.779 | 0.458 | 0.172 | 0.931 | 1.01 | 1.08 | 1.09 | 0.927 | 1.01 | 0.944 | 0.934 | 1.06 | 0.971 | 0.896 | 0.849 | 0.864 | 0.888 | 0.848 |
| NCI-H2405 | – | 0.953 | 0.426 | 0.217 | 0.996 | 0.977 | 1.05 | 0.96 | 0.967 | 1.02 | 0.944 | 0.94 | 1.02 | 1.01 | 1.08 | 1.03 | 1.04 | 1.09 | 1.05 |
| NCI-H727 | 0.516 | 0.565 | 0.531 | 0.54 | 0.838 | 0.989 | 1.08 | 1.1 | 0.811 | 0.877 | 0.691 | 0.911 | 1.13 | 0.97 | 1.11 | 0.879 | 1.2 | 1.07 | 0.863 |
| EMC-BAC-2 | 0.562 | 0.616 | 0.328 | 0.231 | 1.04 | 0.983 | 1.28 | 0.97 | 0.971 | 1.13 | 0.904 | 0.916 | 1.03 | 0.947 | 1.01 | 0.998 | 1.04 | 1.01 | 0.986 |
| ChaGo-K-1 | 0.759 | 0.7 | 0.295 | 0.261 | 1.02 | 1.02 | 1.1 | 0.988 | 0.946 | 1.03 | 0.907 | 0.941 | 1.01 | 0.873 | 0.854 | 1.07 | 0.98 | 0.862 | 0.818 |
| LXF-289 | 0.892 | 0.965 | 0.659 | 0.265 | 1.05 | 1.08 | 1.02 | 1.1 | 0.999 | 1.02 | 0.983 | 0.955 | 1.16 | 0.995 | 0.934 | 1.03 | 1.05 | 1.09 | 0.97 |
| HCC-827 | 0.938 | 0.779 | 0.263 | 0.296 | 1.06 | 1.01 | 1.1 | 1.05 | 1.06 | 1.01 | – | 1.01 | 1.01 | 1.05 | 1.01 | 1.11 | 1.11 | 1.07 | 1.01 |
| HCC-44 | 0.718 | 0.915 | 0.409 | 0.331 | 1.05 | 0.972 | 1.09 | 0.933 | 0.969 | 1.05 | 1.02 | 0.949 | 1.01 | 0.957 | – | – | – | – | – |
| NCI-H2023 | 0.881 | 0.829 | 0.217 | 0.0696 | 1.06 | 1.47 | 1.11 | 1.1 | 0.905 | 0.941 | 0.88 | 0.838 | 0.846 | 0.715 | 0.954 | 1.1 | 0.82 | 0.828 | 0.558 |
| NCI-H1734 | – | 0.77 | 0.195 | 0.181 | 0.961 | 1.05 | 1.03 | 1.07 | 0.88 | 1.1 | 0.845 | 0.944 | 0.993 | 0.985 | 0.844 | 0.913 | 0.938 | 0.781 | 0.656 |
| PC-14 | 0.72 | 0.876 | 0.29 | 0.185 | 1.01 | 1.15 | 1.2 | 1.01 | 0.953 | 1.01 | 0.83 | 0.888 | 0.95 | 0.938 | 0.872 | 1.15 | 1.02 | 1.07 | 0.909 |
| NCI-H3122 | 0.97 | 0.625 | 0.224 | 0.176 | 1.06 | 1.15 | 1.08 | 1.09 | 0.983 | 0.981 | 1.03 | 0.931 | 0.985 | 1.01 | 0.941 | 1.05 | 1 | 0.994 | 0.972 |
| SW 1573 | 0.571 | 0.709 | 0.271 | 0.142 | 1.01 | 1.16 | 0.954 | 1.07 | 0.802 | 1.05 | 0.84 | 0.917 | 0.969 | 0.893 | 0.997 | 1.21 | 0.843 | 1.04 | 0.887 |
| NCI-H2342 | 0.938 | 0.97 | 1 | 0.575 | 0.895 | 0.773 | 0.972 | 1.18 | 0.989 | 0.988 | 1.11 | 1.12 | 1.13 | 1.13 | 0.967 | 1.09 | 1.01 | 1.06 | 1.02 |
| HCC-15 | 0.444 | 0.684 | 0.241 | 0.182 | 1.07 | 1.09 | 1.11 | 1.11 | 0.993 | 1.05 | 0.968 | 0.86 | 1.02 | 0.999 | 1.1 | 1.17 | 1.16 | 1.11 | 1.04 |
| NCI-H1792 | 0.862 | 0.933 | 0.393 | 0.354 | 0.844 | 1.08 | 1.77 | 0.889 | 1.03 | 1.22 | 0.958 | 0.804 | 0.9 | 0.805 | – | – | – | – | – |
